Measurements as given in PubChem BioAssay (NCI).
Values joined by “and” are separate entries in the source; they are usually repeats but may differ in a detail not shown here. Identical values can stand only once.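 Tested at 5 concentrations; 48 h exposure; 96-well plates; endpoints linearly interpolated, else capped at highest concentration. At the GI50, growth is halved. The concentration for full growth arrest is given as TGI.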

Key:
Experiment in all cases: NCI tumour cell line growth inhibition, 48 h
RXF 393 renal = system: RXF 393 renal
A498 renal = system: A498 renal
COLO 205 colon = system: COLO 205 colon
PC-3 prostate = system: PC-3 prostate
HCT-15 colon = system: HCT-15 colon
SNB-19 CNS = system: SNB-19 CNS
SF-539 CNS = system: SF-539 CNS
ACHN renal = system: ACHN renal
BT-549 breast = system: BT-549 breast
UACC-257 melanoma = system: UACC-257 melanoma

| Compound | GI50 (RXF 393 renal) [µM] | TGI (RXF 393 renal) [µM] | GI50 (A498 renal) [µM] | TGI (A498 renal) [µM] | GI50 (COLO 205 colon) [µM] | TGI (COLO 205 colon) [µM] | GI50 (PC-3 prostate) [µM] | TGI (PC-3 prostate) [µM] | GI50 (HCT-15 colon) [µM] | TGI (HCT-15 colon) [µM] | GI50 (SNB-19 CNS) [µM] | TGI (SNB-19 CNS) [µM] | GI50 (SF-539 CNS) [µM] | TGI (SF-539 CNS) | GI50 (ACHN renal) [µM] | TGI (ACHN renal) | GI50 (BT-549 breast) [µM] | TGI (BT-549 breast) | GI50 (UACC-257 melanoma) [µM] | TGI (UACC-257 melanoma) |
| --- | --- | --- | --- | --- | --- | --- | --- | --- | --- | --- | --- | --- | --- | --- | --- | --- | --- | --- | --- | --- |
| Cc1cc(C)c(C#N)c(Sc2nc(C)c([N+](=O)[O-])c(C)c2C#N)n1 | 2.16 | 5.55 | 13.1 | 27 | 2.58 | 5.55 | 4.67 | 61.2 | 2.32 | 6.25 | 15.1 | 88 | 2.43 | 6 µM | 1.75 | 3.38 µM | 2.66 | 7.5 µM | – | – |
| COc1cc(C2C3=C(COC3=O)N(CCO)c3cc4c(cc32)OCCO4)cc(OC)c1OC (stereo not given) | – | – | 0.14 | 0.441 | 0.15 | 0.409 | 0.185 | > 50 | 1.37 | > 50 | 0.717 | > 50 | 0.147 | – | 1.7 | > 50 µM | 0.32 | > 11.8 µM | 0.384 | > 50 µM |
| CC(C)N(Cc1ccc(CN(C(=O)CCl)C(C)C)cc1)C(=O)CCl | 1.33 | 2.85 | 1.9 | 4.27 | 2.16 | 4.36 | 2.27 | 5.48 | 1.38 | 3.64 | 2.16 | 5.4 | 1.67 | 3.25 µM | 1.88 | 3.74 µM | 1.87 | 4.16 µM | – | – |
| COc1cc(OC)cc(C2C3=C(COC3=O)Nc3cc(OC)ccc32)c1 (stereo not given) | – | – | < 0.01 | < 0.0106 | < 0.01 | < 0.01 | < 0.01 | > 42.3 | < 0.01 | > 42.6 | 0.0178 | > 100 | < 0.01 | 15.7 µM | < 0.01 | 33.9 µM | 0.0138 | > 100 µM | > 36.9 | > 100 µM |
| CCCCCC(O)C(O)CCC[C@H](O)[C@H]1CC[C@H]([C@H]2CC[C@H]([C@H](O)CCCCCCCCCCCCC3=C[C@H](C)OC3=O)O2)O1 (stereo not given in full) | 11.1 | 30.9 | – | – | – | 14.2 | 9.15 | 25.4 | 5.48 | 40.6 | 4.61 | 21.4 | 12.1 | 37 µM | 2.41 | 6.27 µM and 20.8 µM | – | 2.79 µM and 25.5 µM | 1.29 | 8.7 µM and 18.6 µM |
| CCCOC(=O)c1c(C)n(C)c2scc[n+]12 | – | – | 24 | 71.9 | 17.8 | 46.8 | 54.1 | > 100 | > 100 | > 100 | 36.3 | > 100 | 91.2 | > 100 µM | > 100 | > 100 µM | 35.9 | > 100 µM | 40.8 | > 100 µM |
| O=C(NNc1ccc(Cl)cc1)C1CCC(CNS(=O)(=O)c2ccccc2Cl)CC1 (stereo not given) | 24.5 | 65.7 | 31.3 | 74.9 | – | – | 3.69 | 34.7 | 5.68 | 61.5 | – | – | 17.4 | 45.1 µM | 16.8 | 66.1 µM | 21.6 | 52.6 µM | 17.1 | 59.7 µM |
| O=C1CSC(c2ccccc2Cl)N1c1nnc(Cn2cnnc2)o1 (stereo not given) | 24.3 | 79.4 | 12.3 | 52.7 | 10.5 | 23.2 | 11.6 | > 100 | 4.47 | 18.2 | – | – | 13.6 | 35.2 µM | 14.3 | 48.6 µM | 6.31 | 32.5 µM | – | – |
| Clc1ccc(-c2c3ccc(=[N+]4CCCCC4)cc-3oc3cc(N4CCCCC4)ccc23)cc1 | 0.129 | 0.279 | 0.035 | 0.15 | – | – | – | – | – | – | 0.133 | 0.313 | – | – | 0.0909 | 0.229 µM | 0.154 | 0.31 µM | 0.13 | 0.304 µM |
| Cc1cc(N(CCOS(C)(=O)=O)CCOS(C)(=O)=O)ccc1C(=O)O | – | – | – | – | > 100 | > 100 | > 100 | > 100 | > 100 | > 100 | > 100 | > 100 | – | – | 50 | > 100 µM | – | – | – | – |
| C#CC1=CC(=O)C(OC)=CC1=O | – | 30.1 | – | > 100 | – | > 100 | – | > 100 | – | 32.3 | – | > 100 | – | > 100 µM | – | 11.3 µM | – | – | – | > 100 µM |
| CSc1cnc2ccccc2c1Sc1c[nH]c2ccccc2c1=O | – | 37.6 | – | 47.4 | – | 22.7 | – | – | – | > 80.8 | – | 65.4 | – | 31.1 µM | – | 52.5 µM | – | – | – | 48 µM |
| N#Cc1ccccc1NC(=O)C(=O)C1NC(=S)NC1=O (stereo not given) | – | > 100 | – | > 100 | – | > 100 | – | – | – | > 100 | – | > 100 | – | > 100 µM | – | > 100 µM | – | – | – | > 100 µM |
| COc1ccc2oc3c(OC)c(OC)c(OC)cc3c(=O)c2c1 | – | 84.4 | – | > 100 | – | > 100 | – | – | – | > 100 | – | > 100 | – | > 100 µM | – | > 100 µM | – | – | – | > 100 µM |
| c1ccc(OCCC[P+](c2ccccc2)(c2ccccc2)c2ccccc2)cc1 | – | – | 1.94 | 7.97 | 0.97 | 3.47 | 0.58 | 6.17 | 22.2 | > 100 | 2.27 | 17.8 | 3.07 | 18.3 µM | 8.94 | 52.8 µM | 1.42 | 17.1 µM | 0.381 | 5.71 µM |
| Cc1ccc(NC(=O)C(=O)CC(=O)c2c(C)n([O-])c3ccccc3[n+]2=O)cc1C | – | > 100 | – | > 100 | – | > 100 | – | – | – | > 100 | – | > 100 | – | > 100 µM | – | > 100 µM | – | – | – | > 100 µM |
| CCCCCCCCCCCCC(O)c1ccco1 (stereo not given) | 24 | 44.7 | – | – | 36.6 | > 100 | 16.9 | 30.7 | 19.2 | 36 | 25.9 | 70.7 | 20.9 | 38.7 µM | 17.9 | 31.7 µM | 20.1 | 40.8 µM | 22.6 | 39.4 µM |
| Cn1cc(C2=C(c3c[nH]c4ccccc34)C(=O)NC2=O)c2ccccc21 | 0.198 | 1.96 | 0.169 | 0.755 | 1.25 | > 25 | 3.91 | > 25 | 1.12 | > 25 | 3.31 | > 25 | 0.195 | 1.14 µM | 1.73 | > 25 µM | 0.314 | > 7.28 µM | – | – |
| CCCCCCSSC(=S)N(CC)CC | 17.1 | 32.9 | 70 | > 100 | – | – | 20.5 | 57.6 | 28.4 | > 100 | 40.3 | > 100 | 17.5 | 43.3 µM | 20.1 | 41.7 µM | 17.1 | 45.2 µM | 48.3 | > 100 µM |
| COc1cc2c(c(OC)c1OC)-c1ccc(SC)c(=O)cc1[C@@H](NCc1ccc([N+](=O)[O-])cc1)CC2 | – | 0.00781 | – | 0.0531 | – | 0.0145 | – | – | – | 0.0324 | – | > 100 | – | 0.00672 µM and 0.0112 µM | – | > 100 µM | – | – | 0.0771 | > 100 µM |
| COc1ccc(C)cc(=O)c1O | – | 90 | – | > 100 | – | > 100 | – | – | – | > 100 | – | > 100 | – | > 100 µM | – | > 100 µM | – | – | – | > 100 µM |
| O=[N+]([O-])c1ccc(Cl)c(CNc2ncnc3c2ncn3C2CCCCO2)c1 (stereo not given) | – | 42.6 | – | 43.9 | – | > 100 | – | > 100 | – | > 100 | – | > 100 | – | 66.1 µM | – | > 100 µM | – | > 100 µM | – | – |
| COc1cc(/C=C/c2ccc(O)c(OC)c2)cc(OC)c1 | – | > 100 | – | 84.4 | – | > 100 | – | 46.8 | – | 45.8 | – | > 100 | – | – | – | 80 µM | – | – | – | 80.6 µM |
| CC/C(Cc1ccccc1)=C(\c1ccc(OCCN2CCCC2)cc1)c1ccc(OC(=O)NCc2ccccc2)cc1 | 1.77 | 3.28 | – | – | 2.11 | 4.28 | 1.86 | 3.55 | 1.58 | 3.07 | 2.15 | 4.58 | 1.7 | 3.09 µM | 1.69 | 3.06 µM | 1.79 | 3.47 µM | 1.91 | 3.81 µM |
| COc1ccc(-c2ccc(/C=N/n3c(COc4ccccc4Cl)nn(CN4CCOCC4)c3=S)o2)c([N+](=O)[O-])c1 | 22.3 | 61.6 | – | – | 36.6 | > 100 | 20.7 | 61.4 | 28.2 | > 100 | 36.2 | > 100 | 28.6 | 60.8 µM | 33.6 | > 100 µM | 14.3 | 40.7 µM | – | – |
